Source: ChEMBL document CHEMBL4002563 (Eur J Med Chem, 2017)
The source made the active and inactive calls. The calls are words filed in the database; no cut-off is given here.

Experiments:
[1] = Drug-uptake in multidrug-resistant mouse EMT6 cells at 100 uM measured after 1 hr by HPLC method; assay type: ADME, cell-based; conditions: emt6, 1 h
[2] = Inhibition of PAK1/COX2 in human A549 cells harboring Ki-RAS mutant assessed as cell growth inhibition measured after 72 hrs by MTT assay; assay type: cell-based; conditions: A549, 72 h
[3] = molecular target: Serine/threonine-protein kinase PAK 1 (Homo sapiens, UniProt Q13153); assay: Inhibition of PAK1 in human A549 cells using myelin basic protein as substrate preincubated for 24 hrs followed by PAK1 immunoprecipation and substrate addition measured after 60 mins by ATP-Glo kinase assay
Serine/threonine-protein kinase PAK 1, sequence (Q13153 whole entry): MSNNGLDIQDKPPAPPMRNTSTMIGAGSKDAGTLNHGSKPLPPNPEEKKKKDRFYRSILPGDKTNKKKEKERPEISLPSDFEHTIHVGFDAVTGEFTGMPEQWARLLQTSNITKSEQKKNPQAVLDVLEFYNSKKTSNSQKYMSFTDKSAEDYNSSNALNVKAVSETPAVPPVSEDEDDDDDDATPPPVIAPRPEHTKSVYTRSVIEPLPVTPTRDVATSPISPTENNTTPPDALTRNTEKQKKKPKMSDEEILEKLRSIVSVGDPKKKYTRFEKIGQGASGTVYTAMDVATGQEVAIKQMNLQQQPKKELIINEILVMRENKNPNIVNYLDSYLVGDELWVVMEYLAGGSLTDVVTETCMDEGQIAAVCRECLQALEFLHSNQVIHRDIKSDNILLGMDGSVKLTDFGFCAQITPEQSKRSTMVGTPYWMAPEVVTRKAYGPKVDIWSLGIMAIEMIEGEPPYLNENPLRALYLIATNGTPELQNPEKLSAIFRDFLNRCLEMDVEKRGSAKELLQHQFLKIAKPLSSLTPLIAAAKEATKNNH

B16-F10 = assay: Cytotoxicity against PAK1-independent mouse B16F10 cells assessed as cell growth inhibition measured after 72 hrs by MTT assay; assay type: functional, cell-based; conditions: B16-F10, 72 h
Rho GTPase Rac1/CDC42 = Rho GTPase Rac1/CDC42 (Homo sapiens, UniProt P60953+P63000); assay: Inhibition of RAC1/CDC42 in human ovarian cancer cells; assay type: cell-based
[4] = molecular target: T1, Prostaglandin G/H synthase 2 (Homo sapiens, UniProt P35354); assay: Inhibition of recombinant human COX2 using arachidonic acid as substrate measured after 2 to 5 mins
T1 sequence (P35354 whole entry): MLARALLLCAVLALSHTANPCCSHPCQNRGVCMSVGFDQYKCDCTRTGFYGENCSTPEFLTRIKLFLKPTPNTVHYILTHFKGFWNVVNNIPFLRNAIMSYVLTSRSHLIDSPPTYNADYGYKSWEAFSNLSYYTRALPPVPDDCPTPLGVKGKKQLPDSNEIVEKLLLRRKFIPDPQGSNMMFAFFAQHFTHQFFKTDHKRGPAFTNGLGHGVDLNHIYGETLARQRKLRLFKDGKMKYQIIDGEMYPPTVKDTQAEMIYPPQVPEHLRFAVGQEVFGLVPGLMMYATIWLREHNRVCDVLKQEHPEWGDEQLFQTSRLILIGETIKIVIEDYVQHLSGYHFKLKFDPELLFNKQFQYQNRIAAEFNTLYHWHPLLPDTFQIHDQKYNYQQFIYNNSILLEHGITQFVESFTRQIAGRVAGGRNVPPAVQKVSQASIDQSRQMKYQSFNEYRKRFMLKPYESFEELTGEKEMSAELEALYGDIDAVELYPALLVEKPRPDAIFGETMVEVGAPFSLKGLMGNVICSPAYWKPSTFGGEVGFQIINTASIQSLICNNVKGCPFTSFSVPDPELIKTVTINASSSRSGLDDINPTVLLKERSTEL

EMT6 = assay: Cytotoxicity against multidrug-resistant mouse EMT6 cells at 100 uM measured after 24 hrs by MTT assay; assay type: functional, cell-based
[5] = Drug-uptake in multidrug-resistant mouse EMT6 cells at 100 uM measured after 6 hrs by HPLC method; assay type: ADME, cell-based; conditions: emt6, 6 h
LIM1899 = assay: Cytotoxicity against human LIM1899 cells up to 100 uM measured after 24 hrs by trypan blue assay; assay type: functional, cell-based
[6] = Drug metabolism in human A549 cells assessed as mitochondrial reductase mediated azo dye formation by colorimetric method; assay type: ADME, cell-based
[7] = Inhibition of PAK1/COX2 in human A549 cells harboring Ki-RAS mutant assessed as cell growth inhibition measured after 72 hrs by trypan blue assay; assay type: cell-based; conditions: A549, 72 h

Q: For `O=C(c1ccccc1)c1ccc2n1CCC2C(=O)O` (stereo not given) [KETOROLAC], which Drug uptake [1] is on record?
A: Its Drug uptake is 0.37 nmol.

Q: And the IC50 [2]?
A: Its IC50 is 13 µM.

Q: And the IC50 [3]?
A: Its IC50 is 36 µM.

Q: And the IC50 (B16-F10)?
A: Its IC50 is 30 µM.

Q: What about the IC50 (Rho GTPase Rac1/CDC42) of the same compound?
A: Its IC50 is 2 µM.

Q: And the IC50 [4]?
A: The IC50 was 0.14 µM.

Q: And the Activity (EMT6)?
A: Its Activity is “inactive”.

Q: With `COc1ccccc1-n1cc(COC(=O)C2CCn3c(C(=O)c4ccccc4)ccc32)nn1` (stereo not given) as the compound, how does the Drug uptake [1] read?
A: The Drug uptake was 3.75 nmol.

Q: And the Drug uptake [5]?
A: The Drug uptake was “Not Active”.

Q: And the IC50 [3]?
A: Its IC50 is 0.065 µM.

Q: What about the Activity (LIM1899) of the same compound?
A: Its Activity is “inactive”.

Q: What about the Activity (EMT6) of the same compound?
A: Its Activity is “inactive”.

Q: And the Drug metabolism [6]?
A: Its Drug metabolism is “Metabolite_Detected”.

Q: What about the IC50 [7] of the same compound?
A: Its IC50 is 0.024 µM.

Q: For `O=C(c1ccccc1)c1ccc2n1CC[C@H]2C(=O)O`, which IC50 (Rho GTPase Rac1/CDC42) is on record?
A: The IC50 was 1 µM.
